{
  "source": "paper doi:10.1101/144204v1",
  "about": "“On the use of the experimentally determined enzyme inhibition constant as a measure of absolute binding affinity” (biorxiv, 2017)",
  "biological_target": "T1, eeAChE (Electrophorus electricus acetylcholinesterase) (Electrophorus electricus, UniProt O42275)",
  "T1 construct": "gene ache; construct details not given",
  "T1 sequence (O42275 24-633)": "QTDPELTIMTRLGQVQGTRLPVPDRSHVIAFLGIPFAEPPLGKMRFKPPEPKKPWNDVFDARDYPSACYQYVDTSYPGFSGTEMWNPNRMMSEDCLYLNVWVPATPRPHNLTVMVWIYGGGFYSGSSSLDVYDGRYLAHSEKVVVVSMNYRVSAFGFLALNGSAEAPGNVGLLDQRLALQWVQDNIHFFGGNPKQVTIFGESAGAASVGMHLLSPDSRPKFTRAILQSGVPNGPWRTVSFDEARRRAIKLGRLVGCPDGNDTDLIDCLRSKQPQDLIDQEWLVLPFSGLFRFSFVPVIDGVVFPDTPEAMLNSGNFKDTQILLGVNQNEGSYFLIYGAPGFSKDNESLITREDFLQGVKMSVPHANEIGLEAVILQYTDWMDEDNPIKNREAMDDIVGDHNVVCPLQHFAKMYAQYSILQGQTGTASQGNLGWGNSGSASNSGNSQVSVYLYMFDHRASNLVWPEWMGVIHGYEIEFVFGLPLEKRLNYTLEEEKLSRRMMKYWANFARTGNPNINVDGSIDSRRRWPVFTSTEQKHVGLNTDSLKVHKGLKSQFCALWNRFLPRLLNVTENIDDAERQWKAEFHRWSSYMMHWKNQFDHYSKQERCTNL",
  "test": "Ellman assay (ATCh/DTNB, […] nm), Lineweaver-Burk",
  "type": "biochemical",
  "note": "Where a name gives a salt, the structure may show the parent alone.",
  "data": [
    {"smiles": "c1ccc2c(NCCCCCCCNc3c4c(nc5ccccc35)CCCC4)c3c(nc2c1)CCCC3", "note": "[bis(7)-tacrine, 1,7-N-heptylene-bis-9,9'-amino-1,2,3,4-tetrahydro-acridinium dihydrochloride]", "values": [
      {"measurement": "Ki", "result": "2.9 ± 0.4", "unit": "pM"}
    ]}
  ]
}
